The record followed here is PubChem BioAssay AID1259408 (Genetic Toxicology Data Bank (GENE-TOX), 2018).

Activity calls are given as the source filed them. How the calls were made is not given here.

This data set deals with GENE-TOX genotoxicity assays, various organisms and cells. In words: GENE-TOX mutagenicity studies. To be noted: for call: Assay Type: In vivo carcinogenicity studies.
[1] abbreviates: Species/Cell Type: Drosophila melanogaster, Assay Type: Sex-linked recessive lethal gene mutation, Assay Code: SRLT, Evaluation Type: Evaluation A (Pre-1980).
Setting [2] is: Species/Cell Type: Nonhuman, Assay Code: CCGT, Evaluation Type: Evaluation A (Pre-1980).
Setting [3] is: Species/Cell Type: Bacillus subtilis (H17 vs M45), Assay Type: Rec-assay, spot test, DNA effects (bacterial DNA repair), Assay Code: REWT, Evaluation Type: Evaluation A (Pre-1980).
Setting [4] is: Species/Cell Type: Escherichia coli polA (W3119 vs P3478), Assay Type: Rec-assay, DNA effects (bacterial DNA repair), Assay Code: RE1T, Evaluation Type: Evaluation A (Pre-1980).
[5] abbreviates: Species/Cell Type: Mammalian polychromatic erythrocytes, Assay Type: Micronucleus test, chromosome aberrations, Assay Code: MNTT, Evaluation Type: Evaluation B (Post-1980).

On to `CCS(=O)CCSP(=O)(OC)OC` (stereo not given), for which the mutagenic call was “no conclusion” under setting [1]; “active; positive” (Species/Cell Type: Human lymphocytes, Assay Type: Sister-chromatid exchange (SCE) in vitro, Assay Code: SCL+D, Dose Response: With dose response, Evaluation Type: Evaluation B (Post-1980)); “active; positive” (Species/Cell Type: Human, Assay Type: Sister-chromatid exchange (SCE) in vitro, Assay Code: SC1+D, Dose Response: With dose response, Evaluation Type: Evaluation B (Post-1980)); “active; positive” (Species/Cell Type: Mammalian polychromatic erythrocytes, Assay Type: Micronucleus test, chromosome aberrations, Assay Code: MNT+, Evaluation Type: Evaluation B (Post-1980)); “active; positive” (Species/Cell Type: Nonhuman, Assay Type: Sister-chromatid exchange (SCE) in vitro, Assay Code: SC2+D, Dose Response: With dose response, Evaluation Type: Evaluation B (Post-1980)); “active; positive” (Species/Cell Type: Saccharomyces cerevisiae, Assay Type: Mitotic recombination or gene conversion, Assay Code: YEC+, Evaluation Type: Evaluation A (Pre-1980)).
With `O=C1C=Cc2ccc3c4c(ccc1c24)-c1ccccc1C3=O`, the mutagenic call by setting is: (Species/Cell Type: Chinese hamster lung (V79) cells, Assay Type: Forward gene mutation at the HPRT or ouabain locus, Assay Code: V79-, Evaluation Type: Evaluation A (Pre-1980)) “inactive; negative”; (Species/Cell Type: Salmonella typhimurium (one or more of the five standard strains: TA98, TA100, TA1535, TA1537, and TA1538), Assay Type: Histidine reverse gene mutation, Ames assay, Assay Code: SALT, Evaluation Type: Evaluation A (Pre-1980)) “no conclusion”. Moreover, the call under setting [2] was “no conclusion”.
`[Be]=[O]`: the call (Species/Cell Type: Nonhuman, Assay Code: CCG+, Evaluation Type: Evaluation A (Pre-1980)) is “active; positive”.
On to `O=NN1CCC(O)CC1`, for which the mutagenic call (Species/Cell Type: Drosophila melanogaster, Assay Type: Aneuploidy, partial sex chromosome loss, chromosome aberrations, Assay Code: DAPT, Evaluation Type: Evaluation A (Pre-1980)) is recorded as “no conclusion”; the mutagenic call (Species/Cell Type: Drosophila melanogaster, Assay Type: Aneuploidy, whole sex chromosome loss, chromosome aberrations, Assay Code: DACT, Evaluation Type: Evaluation A (Pre-1980)) is on record as “no conclusion”; the mutagenic call under setting [1] is “no conclusion”; the mutagenic call (Species/Cell Type: Salmonella typhimurium (one or more of the five standard strains: TA98, TA100, TA1535, TA1537, and TA1538), Assay Type: Histidine reverse gene mutation, Ames assay, Assay Code: SAL+*, Activation: With metabolic activation, Evaluation Type: Evaluation A (Pre-1980)) was “active; positive”.
Take `O=c1cc[nH]c(=O)[nH]1`: the mutagenic call under setting [1] is “no conclusion”.
Take `CC(=O)c1ccc([N+](=O)[O-])[nH]1`: for the setting “Species/Cell Type: Salmonella typhimurium (one or more of the five standard strains: TA98, TA100, TA1535, TA1537, and TA1538), Assay Type: Histidine reverse gene mutation, Ames assay, Assay Code: SAL+, Evaluation Type: Evaluation A (Pre-1980)”, the mutagenic call is “active; positive”.
Regarding `CCCOP(=S)(OCCC)OP(=S)(OCCC)OCCC`, the mutagenic call runs as follows: under setting [3], “no conclusion”; (Species/Cell Type: Drosophila melanogaster, Assay Type: Sex-linked recessive lethal gene mutation, Assay Code: SRL-, Evaluation Type: Evaluation A (Pre-1980)) “inactive; negative”; (Species/Cell Type: Escherichia coli WP2 UVRA, Assay Type: Tryptophan reverse gene mutation, Assay Code: WPU-*, Activation: With metabolic activation, Evaluation Type: Evaluation A (Pre-1980)) “inactive; negative”; under setting [4], “no conclusion”; (Species/Cell Type: Human diploid fibroblasts, Assay Type: Unscheduled DNA synthesis (UDS) in vitro, DNA effects, Assay Code: UDH-, Evaluation Type: Evaluation A (Pre-1980)) “inactive; negative”; (Species/Cell Type: Saccharomyces cerevisiae, Assay Type: Mitotic recombination or gene conversion, Assay Code: YEH-, Evaluation Type: Evaluation A (Pre-1980)) “inactive; negative”. In addition, the mutagenic call (Species/Cell Type: Salmonella typhimurium (one or more of the five standard strains: TA98, TA100, TA1535, TA1537, and TA1538), Assay Type: Histidine reverse gene mutation, Ames assay, Assay Code: SAL-, Evaluation Type: Evaluation A (Pre-1980)) was “inactive; negative”.
On to `C#C[C@]1(OC(C)=O)CC[C@H]2[C@@H]3CCC4=CC(=O)CC[C@@H]4[C@H]3CC[C@@]21C` (tested in a mixture with another compound), for which the mutagenic call (Species/Cell Type: Rodents, Sex: Male, Assay Type: Dominant lethal test, Assay Code: DLT-, Evaluation Type: Evaluation A (Pre-1980)) was “inactive; negative”.
In the case of `O=c1[nH]c2c(c(=O)n1C1CCCCC1)CCC2` (tested in a mixture with another compound), the mutagenic call (Species/Cell Type: Saccharomyces cerevisiae, Assay Type: Mitotic recombination or gene conversion, Assay Code: YEC-, Evaluation Type: Evaluation A (Pre-1980)) is “inactive; negative”.
As for `CC(=O)[O-].CC(=O)[O-].[Cd+2]`, the call under setting [2] is given as “no conclusion”. The mutagenic call runs as follows: (Species/Cell Type: Nonhuman, Assay Type: Sister-chromatid exchange (SCE) in vitro, Assay Code: SC2-, Evaluation Type: Evaluation B (Post-1980)) “inactive; negative”; (Species/Cell Type: Syrian hamster embryo (SA7/SHE) cells, Assay Type: Cell transformation, viral enhanced, Assay Code: CT7+, Evaluation Type: Evaluation A (Pre-1980)) “active; positive”; (Species/Cell Type: Syrian hamster embryo (SHE) cells, Assay Type: Cell transformation, clonal assay, Assay Code: CTC+, Evaluation Type: Evaluation A (Pre-1980)) “active; positive”.
On to `O=C(OC[C@@H]1O[C@H](OC(=O)c2cc(O)c(O)c(OC(=O)c3cc(O)c(O)c(O)c3)c2)[C@@H](OC(=O)c2cc(O)c(O)c(OC(=O)c3cc(O)c(O)c(O)c3)c2)[C@H](OC(=O)c2cc(O)c(O)c(OC(=O)c3cc(O)c(O)c(O)c3)c2)[C@H]1OC(=O)c1cc(O)c(O)c(OC(=O)c2cc(O)c(O)c(O)c2)c1)c1cc(O)c(O)c(OC(=O)c2cc(O)c(O)c(O)c2)c1`, for which the mutagenic call is, setting by setting: under setting [4], “no conclusion”; (Species/Cell Type: Nonhuman, Assay Type: Sister-chromatid exchange (SCE) in vivo, Assay Code: SC3+D, Dose Response: With dose response, Evaluation Type: Evaluation B (Post-1980)) “active; positive”.
Regarding `O=C(Nc1ccc(Br)cc1)c1cc(Br)cc(Br)c1O`, under setting [5], the mutagenic call is “no conclusion”.
As for `CCCCNCCCC`, the mutagenic call is “active; positive” (Species/Cell Type: Nonhuman, Assay Type: Chromosome aberrations in vitro, Assay Code: CY&+D, Dose Response: With dose response, Evaluation Type: Evaluation A (Pre-1980)) and “active; positive” (Species/Cell Type: Nonhuman, Assay Type: Sister-chromatid exchange (SCE) in vitro, Assay Code: SC2+, Evaluation Type: Evaluation A (Pre-1980)).
On to `CC(S)C(=O)NCC(=O)O` (stereo not given), for which the mutagenic call under setting [5] is recorded as “no conclusion”.
Take `CC1CC2OC(/C=C/C=C/C=C/C=C/C=C/C(O)=C3\C(=O)C(C(C)C)N(C)C3=O)C(O)C2O1` (stereo not given): the mutagenic call (Species/Cell Type: Bacillus subtilis (H17 vs M45), Assay Type: Rec-assay, spot test, DNA effects (bacterial DNA repair), Assay Code: REW-, Evaluation Type: Evaluation A (Pre-1980)) is “inactive; negative”.
Regarding `CC(C)Cc1ccc(C(C)C(=O)O)cc1` (stereo not given), the mutagenic call (Species/Cell Type: Human lymphocytes, Assay Type: Sister-chromatid exchange (SCE) in vivo, Assay Code: SCY+, Evaluation Type: Evaluation B (Post-1980)) is “active; positive”.
As for `O=S1(=O)OC(c2ccc(O)cc2)(c2ccc(O)cc2)c2ccccc21`, the mutagenic call (Species/Cell Type: Bacillus subtilis (H17 vs M45T), Assay Type: Rec-assay, spot test, DNA effects (bacterial DNA repair), Assay Code: REXT, Evaluation Type: Evaluation A (Pre-1980)) was “no conclusion”.
As for `O=C(O)CN(CC(=O)O)C1C[C@H]1N(CC(=O)O)CC(=O)O` (stereo not given in full), for the setting “Species/Cell Type: Chinese hamster lung (V79) cells, Assay Type: Forward gene mutation at the HPRT or ouabain locus, Assay Code: V79+, Evaluation Type: Evaluation A (Pre-1980)”, the mutagenic call was “active; positive”.
As to `CC(C)OC(=O)Nc1cccc(Cl)c1`, the mutagenic call is “active; positive” (Species/Cell Type: Hordeum vulgare (barley), Assay Type: Chromosome aberrations, Assay Code: HOC+, Evaluation Type: Evaluation A (Pre-1980)); “no conclusion” (Species/Cell Type: Mammalian polychromatic erythrocytes, Assay Type: Micronucleus test, chromosome aberrations, Assay Code: MNTT, Evaluation Type: Evaluation A (Pre-1980)); “inactive; negative” (Species/Cell Type: Mouse, Sex: Male, Assay Type: Sperm morphology, Assay Code: SPI-, Evaluation Type: Evaluation A (Pre-1980)); “active; positive” (Species/Cell Type: Nonhuman, Assay Type: Sister-chromatid exchange (SCE) in vitro, Assay Code: SC2+, Evaluation Type: Evaluation B (Post-1980)).
`CCCCN(CCCC(=O)O)N=O`: the mutagenic call (Species/Cell Type: Salmonella typhimurium (one or more of the five standard strains: TA98, TA100, TA1535, TA1537, and TA1538), Assay Type: Histidine reverse gene mutation, Ames assay, Assay Code: SAL+/-*, Activation: With metabolic activation, Evaluation Type: Evaluation A (Pre-1980)) was “inactive; positive without activation, negative with activation”.
As for `O=C(CO)c1coc(=O)c2c(O)cccc12`, under setting [3], the mutagenic call was “no conclusion”.
